The text below walks through data of patent US5229409A, “6-substituted-tetrahydrobenz[cd]indoles” (Eli Lilly and Company, priority 1991, dated 1993).

In one experiment the target is T1, 5-HT1A receptor (Rattus norvegicus, UniProt P19327).
T1 construct: the brains were rapidly chilled and dissected to obtain the hippocampi; from tissue; host or cells: hippocampi of male Sprague-Dawley rats (150-250 g), washed membranes
T1 sequence (P19327 1-422): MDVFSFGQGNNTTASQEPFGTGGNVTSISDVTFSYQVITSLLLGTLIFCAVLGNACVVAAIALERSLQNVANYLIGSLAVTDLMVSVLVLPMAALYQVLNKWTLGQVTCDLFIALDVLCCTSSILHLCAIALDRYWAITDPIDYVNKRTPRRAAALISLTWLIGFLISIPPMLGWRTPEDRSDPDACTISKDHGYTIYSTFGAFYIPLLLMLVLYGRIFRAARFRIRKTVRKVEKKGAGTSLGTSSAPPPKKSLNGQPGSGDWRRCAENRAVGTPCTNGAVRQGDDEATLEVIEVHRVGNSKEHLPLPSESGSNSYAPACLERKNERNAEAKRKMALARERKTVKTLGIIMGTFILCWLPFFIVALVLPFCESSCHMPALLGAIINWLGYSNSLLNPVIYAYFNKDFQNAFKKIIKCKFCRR
Briefly: [3H]8-OH-DPAT binding to 5-HT1A sites in hippocampal membranes. Also on record: species or system rat (male Sprague-Dawley). Particulars: [3H]8-OH-DPAT 1.0 nM, pH 7.4, 37° C. The procedure:
The affinities of the compounds at the central […] described by Taylor, et al., (J. Pharmacol. Exp. Ther. 236:118-125, 1986). Membranes for the binding assay were prepared from male Sprague-Dawley rats (150-250 g). The animals were killed by decapitation, and the brains were rapidly chilled and dissected to obtain the hippocampi. The hippocampi were either prepared that day or stored frozen (-70° C.) until the day of preparation. Membranes were prepared by homogenizing the tissue in 40 volumes of ice-cold Tris-HCl buffer (50 mM, pH 7.4 at 22° C.) using a Techmar Tissumizer (setting 65 for 15 sec), and the homogenate was centrifuged at 39800 xg for 10 min. The resulting pellet then resuspended in the same buffer, and the centrifugation and resuspension process was repeated three additional times to wash the membranes. Between the second and third washes the resuspended membranes were incubated for 10 min at 37° C. to facilitate the removal of endogenous ligands. The final pellet was resuspended in 67 mM Tris-HCl, pH 7.4, to a concentration of 2 mg of tissue original wet weight/200 μl. This homogenate was stored frozen (-70° C.) until the day of the binding assay. […] The assay tubes were incubated for 10 min at 37° C, and the contents were then rapidly filtered through GF/B filters (pretreated with 0.5% polyethylenimine), followed by four one-mL washes with ice cold buffer. The radioactivity trapped by the filters was quantitated by liquid scintillation spectrometry, and specific [^3 H]8-OH-DPAT binding to the 5-HT1A sites was defined as the difference between [^3 H]8-OH-DPAT bound in the presence and absence of 10 μM 5-HT.
The affinity of the particular compound at the 5-HT1A receptor is expressed as IC50 value, i.e., the concentration required to inhibit 50% of the binding. The IC50 values were determined from 12-point competition curves using nonlinear regression (SYSTAT, SYSTAT, INC., Evanston, Ill.).

A further experiment addresses T2, 5-HT1D receptor (Bos taurus, UniProt F1MGM3).
T2 construct: the caudate nuclei were dissected out and frozen at -70° C; tissue Pel-Freeze Biologicals; host or cells: bovine caudate nuclei, washed membranes
Briefly: [3H]5-HT binding to 5-HT1D sites in caudate nuclei membranes. Particulars: bovine caudate membranes, [3H]5-HT 1.7-1.9 nM, pH 7.4, 37° C. The procedure:
The affinities of the compounds at the central 5-HT1D binding sites were determined using a modification of the binding assay described by Heuring and Peroutka (J. Neurosci. 7:894-903, 1987). Bovine brains were obtained from Pel-Freeze Biologicals, and the caudate nuclei were dissected out and frozen at -70° C. until the time that the membranes were prepared for the binding assays. At that time the tissues were homogenized in 40 volumes of ice-cold Tris-HCl buffer (50 mM, pH 7.4 at 22° C.) with a Techmar Tissumizer (setting 65 for 15 sec), and the homogenate was centrifuged at 39,800 g for 10 min. The resulting pellet was then resuspended in the same buffer, and the centrifugation and resuspension process was repeated three additional times to wash the membranes. Between the second and third washes the resuspended membranes were incubated for 10 min at 37° C. to facilitate the removal of endogenous 5-HT. the final pellet was resuspended in Tris buffer to a concentration of 25 mg of original tissue wet weight/ml for use in the binding assay. […] The assay tubes were incubated for 10 min at 37° C., and the contents were then rapidly filtered through GF/B filters (pretreated with 0.5% polyethylenimine), followed by four one-mL washes with ice-cold buffer. The radioactivity trapped by the filters was quantitated by liquid scintillation spectrometry, and specific [^3 H]5-HT binding to the 5HT1D sites were defined as the difference between [^3 H]5-HT bound in the presence and absence of 10 μM 5-HT.
The affinities of compounds at the 5-HT1D receptor are expressed as IC50 values, i.e., the concentration required to inhibit 50% of the binding. These values were determined from 12-point competition curves using nonlinear regression (SYSTAT, SYSTAT, Inc. Evanston, Ill.).

For experiment [1], the system named is 5-hydroxyindole acetic acid (5HIAA). Briefly: whole brain 5-hydroxyindoleacetic acid (5HIAA) concentration in vivo in rats. Also on record: species or system rat (male albino). Particulars: 1 hour, series 0.03-3 mg/kg. The procedure: In another experiment certain compounds of the Examples were evaluated to determine ability to affect the 5-hydroxyindoles serotonin and 5-hydroxyindole acetic acid (5HIAA), and serum corticosterone, in vivo. Male albino rats were injected subcutaneously with an aqueous solution of the compound. The pH of the solution was adjusted as necessary to solubilize the compound. A control of the solution without the test compound was similarly injected into a control animal. […] Trunk blood was collected and allowed to clot. After centrifugation, serum was stored frozen prior to analysis. The whole brain was removed and frozen on dry ice for storage prior to analysis. The serum corticosterone concentration was measured spectrofluorometrically using the procedure of Solem and Brinck-Johnson, "An Evaluation of a Method for Determination of Free Corticosteroids in Minute Quantities of Mouse Plasma", Scand. J. Clin. Lab. Invest., Suppl. 80, p. 1-14 (1965), incorporated herein by reference. 5-Hydroxyindoleacetic acid (5HIAA) concentration in whole brain was measured by liquid chromatography with electrochemical detection as reported by Fuller and Perry, "Effects of Buspirone and its Metabolite, 1-(2-pyrimidinyl)piperazine, on Brain Monoamines and Their Metabolites in Rats", J. Pharmacol. Exp. Ther., 248, p. 50-56 (1989), incorporated herein by reference.

For a further experiment, the system named is serotonin. Briefly: whole brain serotonin concentration in vivo in rats. Also on record: species or system rat (male albino). Particulars: 1 hour, series 0.03-3 mg/kg. The procedure: (§1) In another experiment certain compounds of the Examples were evaluated to determine ability to affect the 5-hydroxyindoles serotonin and 5-hydroxyindole acetic acid (5HIAA), and serum corticosterone, in vivo. Male albino rats were injected subcutaneously with an aqueous solution of the compound. The pH of the solution was adjusted as necessary to solubilize the compound. A control of the solution without the test compound was similarly injected into a control animal. The rats were decapitated one hour later. Trunk blood was collected and allowed to clot. After centrifugation, serum was stored frozen prior to analysis. The whole brain was removed and frozen on dry ice for storage prior to analysis. The serum corticosterone concentration was measured spectrofluorometrically using the procedure of Solem and Brinck-Johnson, "An Evaluation of a Method for Determination of Free Corticosteroids in Minute Quantities of Mouse Plasma", Scand. J. Clin. Lab. Invest., Suppl. 80, p. 1-14 (1965), incorporated herein by reference. 5-Hydroxyindoleacetic acid (5HIAA) concentration in whole brain was measured by liquid chromatography with electrochemical detection as reported by Fuller and Perry, "Effects of Buspirone and its Metabolite, 1-(2-pyrimidinyl)piperazine, on Brain Monoamines and Their Metabolites in Rats", J. Pharmacol. Exp. Ther., 248, p. 50-56 (1989), incorporated herein by reference.

The subject of another experiment is serum corticosterone. Briefly: serum corticosterone concentration in vivo in rats. Also on record: species or system rat (male albino). To be noted: 1 hour, series 0.03-3 mg/kg. The procedure: as §1

T2 sequence (F1MGM3 1-403): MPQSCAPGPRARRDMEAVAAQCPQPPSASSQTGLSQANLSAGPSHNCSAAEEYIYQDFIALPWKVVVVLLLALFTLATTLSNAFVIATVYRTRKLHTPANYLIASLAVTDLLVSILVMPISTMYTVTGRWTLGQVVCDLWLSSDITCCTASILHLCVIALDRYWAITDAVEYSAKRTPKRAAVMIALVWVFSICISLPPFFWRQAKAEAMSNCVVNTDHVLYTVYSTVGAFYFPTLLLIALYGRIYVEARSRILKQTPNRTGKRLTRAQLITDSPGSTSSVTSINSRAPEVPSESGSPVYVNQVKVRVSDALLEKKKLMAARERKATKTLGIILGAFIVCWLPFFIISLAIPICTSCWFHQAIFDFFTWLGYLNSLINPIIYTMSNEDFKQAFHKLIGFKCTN

The term IC50 denotes the concentration that inhibits the measured activity by half. Low readings indicate inhibition by little substance, high ones a need for much substance. On to `CCCN(CCC)[C@H]1Cc2c[nH]c3ccc(C(=O)c4ccccc4)c(c23)C1` [Example 10, (4R)-(+)-6-benzoyl-4-(di-n-propylamino)-1,3,4,5-tetrahydrobenz[cd]indole], for which the IC50 was determined as 0.22 nM on 5-HT1A receptor and 1.81 nM at 5-HT1D receptor.

Regarding `CCCN(CCC)C1Cc2c[nH]c3ccc(C(=O)C(C)(C)C)c(c23)C1` (racemic) [Example 1, (±)-6-(2,2-Dimethylpropanoyl)-4-(di-n-propylamino)-1,3,4,5-tetrahydrobenz[cd]indole], the 5HIAA was 1.58 ± 0.05 nmol/g in experiment [1] (0.03 mg/kg s.c.), 1.31 ± 0.03 nmol/g in experiment [1] (0.3 mg/kg s.c.) and 1.23 ± 0.04 nmol/g in experiment [1] (3 mg/kg s.c.). For the same molecule, the Serotonin is 3.15 ± 0.13 nmol/g with serotonin (0.03 mg/kg s.c.), 3.45 ± 0.10 nmol/g with serotonin (0.3 mg/kg s.c.) and 3.38 ± 0.08 nmol/g in the experiment on serotonin (3 mg/kg s.c.). Moreover, the figures for the IC50 on 5-HT1A receptor and at 5-HT1D receptor were 0.5 nM and 2.01 nM, respectively. The results for the “Serum Corticosterone” value with serum corticosterone (0.03 mg/kg s.c.), in the experiment on serum corticosterone (0.3 mg/kg s.c.) and in the experiment with serum corticosterone (3 mg/kg s.c.) were 8.2 ± 3.2 microg./100 ml, 36.0 ± 4.8 microg./100 ml and 44.2 ± 1.5 microg./100 ml, respectively.
